Measured values taken from patent publication US20260241012A1, “1,8-NAPHTHYRIDIN-2-ONE HETEROBIFUNCTIONAL BCL6 DEGRADERS” (Treeline Biosciences, Inc., priority 2022, published 2026).

Molecular target: T1, N-terminal HiBiT tagged BCL6 (Homo sapiens, UniProt P41182)
T1 construct: expressed in transfected cells; host or cells: HT1080 (ATCC CCL-121), stably transduced with lentivirus pLV-UBC-N-HiBiT-BCL6-PGK-puro
Assay: HiBiT based degradation assay
Format: cell-based
Details: HT1080 cells expressing N-terminal HiBiT tagged BCL6, 5 hours of incubation; for Ymin (5 hr): BCL6 degradation normalized with DMSO control; for DC50: four-parameter logistic model, read-out: EC50 (5 hr)
In short: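 Degradation measured by luminescence from the Nano-Glo HiBiT lytic reagent (15 min, room temperature), normalized to DMSO controls and fitted to a four-parameter curve.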

Row | Ymin (5 hr) | DC50 [nM] | Compound
1 | ++++ (Ymin < 30%) | < 10 | CNC(=O)COc1cc2cc(Nc3nc(N4CCC(CN5CCN(c6cccc7c(C8CCC(=O)NC8=O)nn(C)c67)C[C@@H]5CO)CC4)ncc3Cl)cnc2n(C(C)C)c1=O (stereo partly drawn) [Compound 231b, 2-[[6-[[5-chloro-2-[4-[[(2R)-4-[3-(2,6-dioxo-3-piperidyl)-1-methyl-indazol-7-yl]-2-(hydroxymethyl)piperazin-1-yl]methyl]-1-piperidyl]pyrimidin-4-yl]amino]-1-isopropyl-2-oxo-1,8-naphthyridin-3-yl]oxy]-N-methyl-acetamide]
2 | +++ (30% ≤ Ymin < 50%) | < 10 | CNC(=O)COc1cc2cc(Nc3nc(N4CCC(CN5CCN(c6ccc7c(C8CCC(=O)NC8=O)nn(C)c7c6)C[C@H]5CO)CC4)ncc3Cl)cnc2n(C(C)C)c1=O (stereo partly drawn) [Compound 232a, 2-[[6-[[5-chloro-2-[4-[[(2S)-4-[3-(2,6-dioxo-3-piperidyl)-1-methyl-indazol-6-yl]-2-(hydroxymethyl)piperazin-1-yl]methyl]-1-piperidyl]pyrimidin-4-yl]amino]-1-isopropyl-2-oxo-1,8-naphthyridin-3-yl]oxy]-N-methyl-acetamide]
3 | +++ (30% ≤ Ymin < 50%) | < 10 | CNC(=O)COc1cc2cc(Nc3nc(N4CCC(CN5CCN(c6ccc7c(C8CCC(=O)NC8=O)nn(C)c7c6)C[C@@H]5CO)CC4)ncc3Cl)cnc2n(C(C)C)c1=O (stereo partly drawn) [Compound 232b, 2-[[6-[[5-chloro-2-[4-[[(2R)-4-[3-(2,6-dioxo-3-piperidyl)-1-methyl-indazol-6-yl]-2-(hydroxymethyl)piperazin-1-yl]methyl]-1-piperidyl]pyrimidin-4-yl]amino]-1-isopropyl-2-oxo-1,8-naphthyridin-3-yl]oxy]-N-methyl-acetamide]
4 | ++++ (Ymin < 30%) | 10 to 100 | CNC(=O)COc1cc2cc(Nc3cc(N4CCN(CC5CCN(c6cccc7c(C8CCC(=O)NC8=O)nn(C)c67)CC5)[C@H](CO)C4)ncc3Cl)cnc2n(C(C)C)c1=O (stereo partly drawn) [Compound 233a, 2-[[6-[[5-chloro-2-[(3S)-4-[[1-[3-(2,6-dioxo-3-piperidyl)-1-methyl-indazol-7-yl]-4-piperidyl]methyl]-3-(hydroxymethyl)piperazin-1-yl]-4-pyridyl]amino]-1-isopropyl-2-oxo-1,8-naphthyridin-3-yl]oxy]-N-methyl-acetamide]
5 | +++ (30% ≤ Ymin < 50%) | 10 to 100 | CNC(=O)COc1cc2cc(Nc3nc(N4CCC(CN5CCCN(c6ccc7c(C8CCC(=O)NC8=O)nn(C)c7c6)CC5)CC4)ncc3Cl)cnc2n(C(C)C)c1=O (centres unmarked) [Compound 235, 2-[[6-[[5-chloro-2-[4-[[4-[3-(2,6-dioxo-3-piperidyl)-1-methyl-indazol-6-yl]-1,4-diazepan-1-yl]methyl]-1-piperidyl]pyrimidin-4-yl]amino]-1-isopropyl-2-oxo-1,8-naphthyridin-3-yl]oxy]-N-methyl-acetamide]
6 | +++ (30% ≤ Ymin < 50%) | < 10 | CNC(=O)COc1cc2cc(Nc3nc(N4CCC(CN5CCCN(c6cccc7c(C8CCC(=O)NC8=O)nn(C)c67)CC5)CC4)ncc3Cl)cnc2n(C(C)C)c1=O (centres unmarked) [Compound 236, 2-[[6-[[5-chloro-2-[4-[[4-[3-(2,6-dioxo-3-piperidyl)-1-methyl-indazol-7-yl]-1,4-diazepan-1-yl]methyl]-1-piperidyl]pyrimidin-4-yl]amino]-1-isopropyl-2-oxo-1,8-naphthyridin-3-yl]oxy]-N-methyl-acetamide]
7 | ++++ (Ymin < 30%) | < 10 | CNC(=O)COc1cc2cc(Nc3nc(N4CCC5(CCC(CN6CCC(c7ccc8c(C9CCC(=O)NC9=O)nn(C)c8c7)CC6)CC5)CC4)ncc3Cl)cnc2n(C(C)C)c1=O (centres unmarked) [Compound 237, 2-((6-((5-chloro-2-(9-((4-(3-(2,6-dioxopiperidin-3-yl)-1-methyl-1H-indazol-6-yl)piperidin-1-yl)methyl)-3-azaspiro[5.5]undecan-3-yl)pyrimidin-4-yl)amino)-1-isopropyl-2-oxo-1,2-dihydro-1,8-naphthyridin-3-yl)oxy)-N-methylacetamide]
8 | ++++ (Ymin < 30%) | 10 to 100 | CNC(=O)COc1cc2cc(Nc3nc(N4CCC5(CCN(CC6CCN(c7cc8c(cc7F)c(C7CCC(=O)NC7=O)nn8C)CC6)CC5)CC4)ncc3Cl)cnc2n(C(C)C)c1=O (centres unmarked) [Compound 239, 2-((6-((5-chloro-2-(9-((1-(3-(2,6-dioxopiperidin-3-yl)-5-fluoro-1-methyl-1H-indazol-6-yl)piperidin-4-yl)methyl)-3,9-diazaspiro[5.5]undecan-3-yl)pyrimidin-4-yl)amino)-1-isopropyl-2-oxo-1,2-dihydro-1,8-naphthyridin-3-yl)oxy)-N-methylacetamide]
9 | ++++ (Ymin < 30%) | 10 to 100 | CNC(=O)COc1cc2cc(Nc3nc(N4CCC5(CCC(CN6CCC(c7ccc8c(C9CCC(=O)NC9=O)nn(C)c8c7F)CC6)CC5)CC4)ncc3Cl)cnc2n(C(C)C)c1=O (centres unmarked) [Compound 240, 2-((6-((5-chloro-2-(9-((4-(3-(2,6-dioxopiperidin-3-yl)-7-fluoro-1-methyl-1H-indazol-6-yl)piperidin-1-yl)methyl)-3-azaspiro[5.5]undecan-3-yl)pyrimidin-4-yl)amino)-1-isopropyl-2-oxo-1,2-dihydro-1,8-naphthyridin-3-yl)oxy)-N-methylacetamide]
10 | ++++ (Ymin < 30%) | 10 to 100 | CNC(=O)COc1cc2cc(Nc3nc(N4CCN(CC5CCN(c6cccc7c(C8CCC(=O)NC8=O)nn(C)c67)CC5(F)F)CC4)ncc3Cl)cnc2n(C(C)C)c1=O (centres unmarked) [Compound 241, 2-((6-((5-chloro-2-(4-((1-(3-(2,6-dioxopiperidin-3-yl)-1-methyl-1H-indazol-7-yl)-3,3-difluoropiperidin-4-yl)methyl)piperazin-1-yl)pyrimidin-4-yl)amino)-1-isopropyl-2-oxo-1,2-dihydro-1,8-naphthyridin-3-yl)oxy)-N-methylacetamide]
